According to patent US20020042079A1, “METHODS AND AGENTS FOR MEASURING AND CONTROLLING MULTIDRUG RESISTANCE” (priority 1994, published 2002):
“Also recorded” adds a separate entry of the source.

Tests used:
[1] = lumenal pH of 6 and an external pH of 8; cited from earlier work
MCF-7/ADR cells [2] = assay: Cell viability assay of Adriamycin sensitivity (Hoechst 33258 DNA content); conditions: for effect on sensitivity of drug-resistant cells to Adriamycin: MCF-7/ADR (MCF-7adr) cells, agent co-incubated with adriamycin for 6 hours
Method: After 6 hours, the media was removed, the cells rinsed, and then fed with fresh media not containing drugs. […] Media was aspirated and the wells rinsed with Hanks Balanced Salt Solution (HBSS, phenol red free). The cells were sonicated in hypotonic media (0.1×HBSS) for 30 seconds. […] Calf thymus DNA was used for calibration.
Cell viability assays: The media was removed 60 hr. after plating the cells and replaced with fresh media supplemented with various concentrations of adriamycin (Calbiochem, CA) and monensin (solubilized in DMF 0.1%) (Sigma, St. Louis). After 6 hr the media was removed, the cells rinsed, and then fed with fresh media not containing drugs. […] Media was aspirated and the wells rinsed with Hanks Balanced Salt Solution (HBSS, phenol red free). The cells were sonicated in hypotonic media (0.1×HBSS) for 30 seconds. […] Calf thymus DNA was used for calibration.
Cell Viability Assays: Cell viability was assayed by plating cells at ˜1000 cells/well in 24 well plates (Falcon) in DME. […] The cells were fed daily for three days and then cell viability was quantified with two independent techniques: an assay of total DNA and an assay of volume of viable cells. […] Calf thymus DNA was used for calibration.
After three days cell viability was assayed.

MCF-7/ADR cells [3] = assay: Subcellular distribution of Adriamycin fluorescence (confocal microscopy); type: cell-based, human; conditions: for Adriamycin distribution after addition of agent: MCF-7/ADR, Monensin 5 μM, Bafilomycin A1 500 nM, concanomycin 100 nM, Tamoxifen 10 μM (50 μM in Example 3), verapamil 10 μM, cyclosporin 5 μM
Method: Adriamycin can be excited between 350 nm-550 nm and emits between 400 nm-700 nm.
Labeling of Cells with Adriamycin: Cells were loaded with Adriamycin (10 μM) added to the perfusion medium. […] For epi-fluorescence, the cells were excited with 450-490 nm filter and emission was monitored with a 510 nm longpass filter.

MCF-7/ADR cells [4] = assay: Acridine orange labeling of acidic compartments (confocal microscopy); type: cell-based, human; conditions: for red-orange acridine orange fluorescence of cytoplasmic organelles after addition of agent: MCF-7/ADR, 30 minutes, Monensin 5 μM, Bafilomycin A1 500 nM, concanomycin 100 nM, Tamoxifen 5 or 10 μM, verapamil 10 μM, cyclosporin A 10 μM
Method: Confocal fluorescence imaging of intracellular pH and acidic compartments: Acridine orange (2 μg/ml media; 4 mg/ml stock in water) was added directly to the chambers and the cells were incubated with the dye at 37° C. for 30 minutes. Cells in the presence of acridine orange were then examined at room temperature with an Insight Bilateral Laser Scanning Confocal Microscope (Meridian Instruments, Okemos, Mich.). […] Optical sections of the fluorescent sample were recorded at 0.5 micron intervals. […] The acetoxymethylester derivative of SNAFL-calcein (15 μg/ml) (Molecular Probes, Eugene, Oreg.) (a radiometric fluorescent probe for pH) was added to both MCF-7 and MCF-7adr cells. The ester linked fluorescent probe enters the cell passively where the esters are hydrolyzed by esterases located in the cytoplasm and intracellular vesicles. The SNAFL-calcein is then ionically trapped within the cytoplasm and vesicular compartments. […] These images were then compared to standard curves that were obtained in the following manner. […] Cells treated with monensin were exposed to the drug (10 μg/ml of media) for 30 minutes at 37° C. prior to labeling with SNAFL-calcein as described above. All cells were examined at room temperature.
The green and red emissions were collected using two photomultiplier tubes. […] Green emission was next passed through a 530 nm/30 nm bandpass filter and collected by the on-axis photomultiplier tube. Red emission was passed through a 610 nm longpass filter and collected by the 90° side photomultiplier tube.
Optical sections of the fluorescent samples were recorded at 0.5 micron intervals with a 60×oil immersion objective.

[5] = system: isolated microsomes of MCF-7/ADR cells; assay: In vitro acidification of total microsomal preparation (acridine orange quenching); conditions: for rate of dissipation of the pre-existing pH gradient: added 10 minutes after ATP, Bafilomycin A1 100 nM, compared with tamoxifen
Method: Acidification of Cellular Microsomes: The acidification of cellular microsomes was assayed spectrophotometrically. Two different approaches were used for assaying acidification: Acidification of the total microsomal preparation using quenching of acridine orange and acidification of the recycling endosomes by monitoring the fluorescence from a microsomal preparation from cells that had previously endocytosed FITC-transferrin.
The homogenate was centrifuged twice for 10 minutes at 3000 g to remove unbroken cells and nuclei. The supernatant was layered over 20 ml of 0.5 M sucrose (20 mM HERES (pH 7.4), 1 mM DTT, 1 mM EDTA, 1×protease inhibitor mix) and 1 ml of 2 M sucrose and centrifuged for one hour at 100,000 g (Beckman Ti60 Rotor). Microsomes are collected at the 0.5 M and 2 M interface.
Acidic vesicles accumulate acridine orange to high concentrations resulting in the self quenching of the dye. This accumulation causes depletion of the acridine orange from the extra-vesicular space, and a decrease of the overall fluorescence of the sample. […] The sample was allowed to equilibrate by stirring for 30 minutes at 25° C. After 5 minutes of recording to establish baseline, 1 mM Tris-ATP was added to begin acidification (100 mM stock, titrated to pH 7.4 with 1 M Tris-base before use).

MCF-7/ADR cells [6] = assay: Organelle-specific pH measurements with targeted SNARF and FITC probes in living cells; type: cell-based, human; conditions: MCF-7/ADR cells; SNARF 70 kD dextran; Tamoxifen at 10 μM
Method: Organelle-specific pH measurements: The pH was measured in selective cellular compartments by targeting ratiometric pH probes to specific organelles. […] Using a Nikon epifluorescence microscope with a intensified CCD camera, the pH probe FITC was excited alternately at 450 nm and 490 nm and emission recorded with a 520/10 bandpass filter. […] In short, to calibrate the pH for the endosomal system, the chamber was perfused with 150 mM sodium buffers at pH of 5, 6 or 7 containing of monensin (20 μM) and nigericin (10 μM) for 5 minutes before recording the fluorescence. For the pH calibrations of cytosol and nucleoplasm, the cells were incubated in 140 mM potassium buffers at pH 6.0, 6.5, 7.0 and 7.5 containing nigericin (20 μM).
After endocytosis, the transferrin is transported through the endosomes and then recycled back to the surface without passage through the lysosomes.
pH in the lysosomes: The pH in the lysosomes was assayed both with light and electron microscopy. […] The pH was calibrated as described above. […] The cells were incubated one hour at room temperature, washed with several changes of PBS pH 7.4 containing 50 mM NH4Cl. […] The cells were embedded in LR White in gelatin capsules and baked at 60° C. for 24 hours in a vacuum oven, sectioned and incubated overnight at 4° C. with anti-DNP antibodies in 4% FBS, washed and incubated in gold (10 nm) labeled secondary antibodies for 2 hours. They were then stained and visualized under the electron microscope.
Cells were plated on polystyrene plates at 50% confluency. Twenty-four to thirty-six hours later, the medium was aspirated and the cells were covered with 50 μl of DME with SNARF-dextran (10 mg/ml). The cells were quickly scraped off the polystyrene and placed in pre-chilled tubes containing 1 ml DME without serum. The cells were harvested (100 g for 5 minutes), washed twice with pre-chilled DME, and plated on Lab-Tek chambers in DME with serum. The cells were allowed to recover for 24 hours prior to examination on a confocal microscope. The pH was calibrated from SNARF fluorescence as described above.
pH in the nucleus: The nucleoplasmic pH was probed by loading the cytosol with SNARF conjugated to a 10 kD dextran. This dextran is too large to cross cellular membranes, but can enter the nucleoplasm by diffusion across the nuclear pores. Confocal fluorescence microscopy was used to prepare optical sections through the cell allowing the fluorescence intensity of the nucleoplasm and cytoplasm to be quantified. The 10 kD SNARF-dextran was loaded into the cytosol and imaged using the same techniques for the 70 kD SNARF-dextrans (see above).

Row | SMILES | red-orange acridine orange fluorescence of cytoplasmic organelles after addition of agent (MCF-7/ADR cells [4]) | rate of dissipation of the pre-existing pH gradient [5] | Adriamycin distribution after addition of agent (MCF-7/ADR cells [3]) | effect on sensitivity of drug-resistant cells to Adriamycin (MCF-7/ADR cells [2]) | other results
1 | COc1cccc2c1C(=O)c1c(O)c3c(c(O)c1C2=O)C[C@@](O)(C(=O)CO)C[C@@H]3O[C@H]1C[C@H](N)[C@H](O)[C@H](C)O1 [Adriamycin] |  |  |  |  | accumulation in a liposome [1]: approximately 100 fold; cell death (MCF-7/ADR cells [2]; 1 μM Adriamycin, absence of Tamoxifen, 6 hours exposure, assayed after three days): less than 20%; time for Adriamycin accumulation to reach a steady-state distribution (MCF-7/ADR cells [3]; MCF-7 and MCF-7/ADR cells): approximately 60 minutes
2 | CO/C1=C\C(C)=C\[C@@H](C)[C@@H](O)[C@@H](C)C/C(C)=C/C=C/[C@H](OC)[C@@H]([C@@H](C)[C@@H](O)[C@H](C)[C@@]2(O)C[C@@H](O)[C@H](C)[C@@H](C(C)C)O2)OC1=O [Bafilomycin A1] | the punctate red labeling of acidic organelles was lost; also recorded: disappearance of punctate red-orange cytoplasmic fluorescence | dissipated the pH gradient at a much slower rate | redistributed Adriamycin to the nucleoplasm; also recorded: substantially decreased in all cytoplasmic compartments and increased in the nucleoplasm |  | acidification of pre-treated microsomes ([5]; Tamoxifen 8 μM, Bafilomycin A1 10 nM, monensin concentration not given): blocked acidification; acidification blocked ([5]; at one tenth of 100 nM): 95%
3 | C[C@H]1CCC/C=C/[C@@H]2C[C@H](O)C[C@H]2[C@H](O)/C=C/C(=O)O1 [Brefeldin A] |  |  |  | did not affect drug sensitivity | 
4 | CO[C@@H]1C[C@@H](C[C@H]2CC[C@H](C)[C@H]([C@@H](C)C(=O)O)O2)O[C@]2(O[C@](C)([C@H]3CC[C@@](C)([C@@H]4O[C@@H]([C@H]5O[C@@](O)(CO)[C@H](C)C[C@@H]5C)C[C@@H]4C)O3)C[C@H]2C)[C@@H]1C [Nigericin] |  | significantly faster than tamoxifen |  | functioned in a similar manner | acridine orange staining of acidic vesicles after treatment (MCF-7/ADR cells [4]; MCF-7adr (Examples 2, 3), nigericin 7.5 μM, tamoxifen 50 μM): eliminated fluorescent staining of both cytoplasmic vesicles and vesicles within the pericentriolar region; also recorded: immediate loss of orange/red fluorescence
5 | N=C(N)NC(=O)c1nc(Cl)c(N)nc1N [amiloride] |  |  |  | functioned in a similar manner | 
6 | COc1ccc(CCN(C)CCCC(C#N)(c2ccc(OC)c(OC)c2)C(C)C)cc1OC (stereo not shown) [verapamil] | loss of the red-orange cytoplasmic fluorescence |  | shifted Adriamycin from punctate cytoplasmic organelles to a diffuse cytoplasmic and nucleoplasmic distribution |  | shift of cytosolic pH, more alkaline (MCF-7/ADR cells [6]): no measurable effect on cytosolic pH
